These are literature values, as cited in patent US8496914B2, “Antibacterial oral rinse formulation for preventing coronary artery disease” (priority 2005, dated 2013).

The test system of series [1] is Staphylococcus aureus, Staphylococcus epidermidis and Propionibacterium acnes. The settings on record: Raman et al. 1995.
Series [2] concerns Staphylococcus aureus. The settings on record: Williams et al. 1997.

Turning to `CC1=CCC2CC1C2(C)C` (stereo not drawn) [alpha-pinene], in series [1], the “inhibition of three bacterial strains” value is “inhibit”. `CC1=CCC(C(C)(C)O)CC1` (stereo not drawn) [alpha-terpineol]: the “inhibition of three bacterial strains” value in series [1] is “inhibit”.

Turning to `CC1=CCC(O)(C(C)C)CC1` (stereo not shown) [terpinen-4-ol], the “activity against Staphylococcus aureus” value in series [2] was “equally effective”. Besides, the “inhibition of three bacterial strains” value in series [1] is “inhibit”.
